These results are taken from PMC8238948, “Potent inhibitors of toxic alpha-synuclein identified via cellular time-resolved FRET biosensors” (NPJ Parkinson's Disease, 2021).

As usually defined, the EC50 is the concentration that produces a half-maximal response. Broadly, the IC50 is the concentration that inhibits the measured activity by half.

“Also recorded” adds a separate entry of the source. Counter-ions that a name gives are not always drawn. Like-named read-outs stand apart in the source and are kept apart here.

For one series, the target named is T1, αSN oligomers (Homo sapiens, UniProt P37840).
T1 construct: made in house; host or cells: Escherichia coli BL21(DE3), T7-7 plasmid
The experiment in a line: ThT content (β-sheet) of αSN oligomers after oligomerization assay. It counts as biochemical. The note with it: 70 μM compound (1:5 compound:monomer), 12 h oligomerization; vs DMSO. As to the method: To explore the presence of β-sheet content in these oligomers, an aliquot was removed prior to cross-linking, diluted into 100 μM ThT working solution, and ThT fluorescence was monitored to detect the presence of β-sheet. Supplementary Fig. 22 presents each sample ThT content normalized to the PFF signal. We observed an increased ThT content in the αSN oligomers (αS-O) that was not affected by DMSO (vehicle) treatment.
A 10-μL aliquot from each sample was taken and diluted with 290 μL ThT working solution (100 μM ThT in PBS) and dispensed into 3 wells of a 384-well, black opaque plate. Additional samples of PBS, αSN(m), and αSN PFF were used as controls. Plates were incubated at ambient temperature for 10 min and then fluorescence read at 450ex/490em on a Spectromax-i3x (Molecular Devices).
Supplemental Figure 22. Characterization of β-sheet content in αSN oligomers due to hit compound
After the 12-hour oligomerization assay aliquots of each sample were
removed and diluted in 100μM ThT and fluorescence read in triplicate (450ex/490em) in 384-well plates. The
ThT signal was normalized to a signal from previously frozen αSN PFF aliquots. After completion of the
PFF, green bar) and the ThT signal was not affected by DMSO (red bar). Oligomerization in the presence of
control compounds, EGCG and Baicalin, at 70μM (a sub-stoichiometric,1:5 compound: monomer ratio)
Our hit compounds RO, DEM, and BAY had differential effects with
both DEM and BAY resulting in increased ThT content and RO not producing a significant change relative to
(1 picture or pasted object on this page, not shown here)

In series [1] the test system is primary mouse hippocampal neurons treated with murine-PFF. As to the kind of experiment: Primary neuron model of αSN PFF pathology. It is filed as cell-based. The note with it: 1 µM compound, co-treatment with murine-PFF for 12 days. An excerpt: As described previously, numerous in vivo and in vitro alpha-synucleinopathy mouse models have been developed using treatment with sonicated αSN PFF to model pathology. PFF treatment of primary mouse hippocampal neurons results in neurotoxicity and increased phosphoserine-129 (pS^129) immunoreactivity, a marker for alpha-synucleinopathy pathology[87],[88]. These effects can be produced using either human-PFF or murine-PFF with the murine-PFF providing a stronger response. Primary neurons (7 days in vitro (DIV)) were treated for 12 days with murine-PFF or PBS and 1 µM hit compound or DMSO (compound vehicle). Neurons were fixed and stained for NeuN (neuronal nuclei), Map2 (neurite and neuronal morphology), and 81a (pS^129) (see Supplementary Fig. 16). […] Future studies focused on hit-to-lead optimization will focus on these nuances to resolve hit compound’s MOA.
Primary neuronal cultures were prepared from CD1 embryos on E16–18, as previously described. Primary mouse neuron protocol was approved by the University of Pennsylvania Institutional Animal Care and Use Committee. Tissue culture plates and coverslips were coated with Poly-D-lysine (Sigma) before addition of cells. Neurons were plated in 96-well plates (60,000 cells/cm^2). Cultures were maintained in Neurobasal medium supplemented with B27 and Glutamax (all from Invitrogen).
PFF treatment was performed at 7 DIV and cultures were incubated for a further 12 days prior to fixation and analysis. […] PFF concentrations are expressed as the total equivalent αSN monomer content in the preparation. […]
Cultured neurons were fixed by replacing media with warm PFA (4% in PBS containing 4% sucrose) for 15 min at RT. […] Image analysis and quantification was performed using the InCell Toolbox Analyzer software (GE Healthcare Life Sciences). The total integrated area for 81a immunopositivity was quantified for each sample and then normalized (divided) by the number of NeuN-positive objects in the fields examined.

Series [2] concerns SH-SY5Y cells overexpressing unlabeled wild-type (WT) αSN. The experiment in a line: CytoTox-Glo cytotoxicity assay: rescue of αSN-induced cytotoxicity. It counts as cell-based, human. Particulars: for rescue of αSN-induced cytotoxicity: dose response, 48-h exposure; for rescue of toxicity in three-dose preliminary screen: three-dose assay; for EC50: read-out: EC50, protection of SH-SY5Y cells from αSN-induced death. On the procedure:
Hit compounds were evaluated for rescue of αSN-induced cytotoxicity in using an SH-SY5Y neuroblastoma cell model of alpha-synucleinopathy[18],[69]–[72]. […] A seven-point CRC for RO, BAY, DEM, and Anle138b (positive control compound[41],[73]) was performed to determine IC50 for each compound. […]
Cell cytotoxicity was measured using the CytoTox-Glo (Promega Corporation) Luminescence Assay Kit. SH-SY5Y human neuroblastoma cells were plated at a density of 5 × 10^6 cells/plate in 100 mm plate (Corning) and transfected with unlabeled WT αSN or equivalent vector-only control for 24 h. The transfected cells were then plated at a density of 5000 cells/well in white solid 96-well plate (Corning) with a total volume of 100 μL, followed by treatment with hit compounds spanning a range of concentrations (0.1 nM to 100 μM), as well as DMSO-only controls, for another 48 h. After incubation, 50 μL of CytoTox-Glo Cytotoxicity Assay Reagent was added to all wells followed by mixing by orbital shaking and incubation in the dark for 15 min at RT. Luminescence readings were measured using a Cytation3 Cell Imaging Multi-Mode Reader luminometer (BioTek). After the first read, 50 μL of Lysis Reagent was added, incubated for 15 min at RT, and a second read performed. Total viable cellular luminance was determined by the difference between the first and second luminescence signal and total cellular viability is determined by normalizing to the no-treatment samples.

Regarding `COC(=O)C1=C(C)NC(C)=C([N+](=O)[O-])C1c1ccccc1C(F)(F)F` (racemic) [BAY, (±)-Bay K 8644], the “ThT signal of αSN oligomers” value at αSN oligomers was “increased the ThT signal”. Moreover, in series [1], the “pS129 pathology staining (81a/NeuN)” value was “reduced the αSN pathology; also recorded: reduces the pS^129 phenotype”. Moreover, in series [2], the “rescue of αSN-induced cytotoxicity” value is “reduced effect; also recorded: did not rescue” and the “rescue of toxicity in three-dose preliminary screen” value (“rescue of toxicity” for short) is recorded as “only mild recovery”.
`Nc1ccc(-c2nc3ccc(-c4nc5ccc(N)cc5[nH]4)cc3[nH]2)cc1` [RO, Ro 90–7501]: the “ThT signal of αSN oligomers” value on αSN oligomers is recorded as “no effect”. Besides, the “pS129 pathology staining (81a/NeuN)” value in series [1] is given as “little to no effect”. Moreover, in series [2] (72-h transfection, 48-h exposure to compound, seven-point CRC), the concentration for a half-maximal effect (EC50) came to 78 nM. Also, in series [2], the “rescue of αSN-induced cytotoxicity” value is “clear dose-dependent rescue of toxicity” and the “rescue of toxicity” value is on record as “strong response”.
In the case of `CN(C)[C@@H]1C(O)=C(C(N)=O)C(=O)[C@@]2(O)C(O)=C3C(=O)c4c(O)ccc(Cl)c4[C@@H](O)[C@H]3C[C@@H]12` [DEM, Demeclocycline HCl], at αSN oligomers, the “ThT signal of αSN oligomers” value is listed as “increased the ThT signal”. The “pS129 pathology staining (81a/NeuN)” value in series [1] is recorded as “reduced the αSN pathology; also recorded: reduces the pS^129 phenotype”. The EC50 in series [2] (Homo sapiens, SH-SY5Y, 72-h transfection, 48-h exposure to compound, seven-point CRC) stood at 65 nM. The IC50 in series [2] (Homo sapiens, SH-SY5Y, 72-h transfection, 48-h exposure to compound, seven-point CRC, read-out: IC50, inhibition of αSN-induced toxicity) is 65 nM. Further, in series [2], the “rescue of αSN-induced cytotoxicity” value is “clear dose-dependent rescue of toxicity” and the “rescue of toxicity” value is reported as “strong response”.
